The values that follow come from US20230032101A1, “FIVE-MEMBERED HETEROCYCLIC OXOCARBOXYLIC ACID COMPOUND AND MEDICAL USE THEREOF” (Shanghai Institute of Materia Medica, Chinese Academy of …, priority 2019, published 2023).

The structures appear in SMILES notation.

Assay type in all cases: cell-based
Experiment [1] deals with type I interferon pathway (ISG) in human THP1-Blue-ISG cells. In words: Activation of type I interferon pathway (ISG) in human THP1-Blue-ISG cells (Quanti-Blue, OD650). The conditions noted are these: 24 h, Compound OD650/Control OD650, ≥2 times considered valid; for fold induction at 10 µM / fold induction at 50 µM: Homo sapiens, THP1-Blue ISG, read-out: Fold Change. As to the method:
20 μL of compound diluted with physiological saline was added to each well of a 96-well cell culture plate, the positive control compound was ADU-S100, and the solvent control group was added with 20 μL of physiological saline containing DMSO. THP1-Blue-ISG cells were counted, the cell concentration was adjusted to 5×10^5/mL, and 180 μL of cells were added to each well for incubation. Therefore, the final volume of each test well was 200 μL, the content of DMSO was 0.1%/0.5%, the test concentration of the compound was 10/50 μM, and the positive control compound was ADU-S100 at a final concentration of 10 μM, and incubated for 24 hours for detection.
After 24 hours, 20 μL of the culture solution was took out from each well to a new 96-well plate, 180 μL of chromogenic solution Quanti-Blue was added, placed in a 37° C. incubator, and the OD650 value was measured after 0.5-2 hours. The experiment was repeated twice.
The experimental results were used to evaluate the ability of compounds to induce the secretion of type I interferon pathway (ISG) by the Fold Change, which was calculated as follows:
Fold Change=Compound OD650/Control OD650, wherein the results of ≥2 times were considered valid.

For experiment [2] the test system is unchanged. Described as above. The conditions noted are these: 24 h, Compound OD650/Control OD650, ≥2 times considered valid, read-out: Fold Change.
In experiment [3] the test system is type I interferon pathway in murine Raw-lucia cells. In words: Activation of type I interferon pathway in murine Raw-lucia cells (QUANTI-Luc luminescence). The conditions noted are these: Mus musculus, 24 h, Compound Luminescence/Control Luminescence, ≥2 times considered valid, read-out: Fold Change. As to the method:
Raw-lucia cells were counted, the cell concentration was adjusted to 5×10^5/mL, and 180 μL of cells were added to each well for incubation. 20 μL of compound diluted with physiological saline was added to each well of a 96-well cell culture plate after cells were adhered, the concentration of the compound was 50 μM/100 μM.
After 24 hours, 20 μL of the culture medium was took out from each well to a new 96-well plate with bottom-transmitting, 50 μL of the luciferase detection reagent QUANTI-Luc™ was added, and the […] was measured immediately (in the dark). The experiment was repeated twice.

Consider `Nc1ncnc2c1ncn2[C@@H]1O[C@@H]2COP(=O)([S-])O[C@@H]3[C@H](O)[C@@H](COP([O-])(=S)O[C@H]2[C@H]1O)O[C@H]3n1cnc2c(N)ncnc21.[Na+].[Na+]` (some centres unmarked) [ADU-S100, reference compound], for which the “Fold Change” value in experiment [1] (10 μM) is 12.45@10 μM.

As to `O=C(O)CC(=O)c1cc(-c2c[nH]c3ccccc23)cs1` [Example I-1, 3-(4-(1H-indol-3-yl)thiophen-2-yl)-3-oxopropionic Acid], the fold induction at 10 µM in experiment [1] (10 μM) was 14.3.

Take `O=C(O)CC(=O)c1cc(-c2c[nH]c3cc(F)ccc23)cs1` [Example I-2, 3-(4-(6-fluoro-1H-indol-3-yl)thiophen-2-yl)-3-oxopropionic acid]: in experiment [1] (10 μM), the fold induction at 10 µM amounted to 11.

Take `O=C(O)CC(=O)c1cc(-c2c[nH]c3c(F)cccc23)cs1` [Example I-3, 3-(4-(7-fluoro-1H-indol-3-yl)thiophen-2-yl)-3-oxopropionic acid]: the fold induction at 10 µM in experiment [1] (10 μM) stood at 9.82.

Consider `O=C(O)CC(=O)c1cc(-c2c[nH]c3ccc(F)cc23)cs1` [Example I-4, 3-(4-(5-fluoro-1H-indol-3-yl)thiophen-2-yl)-3-oxopropionic acid], for which, in experiment [1] (10 μM), the fold induction at 10 µM is 9.95.

As for `O=C(O)CCCC(=O)c1cc(-c2c[nH]c3ccccc23)cs1` [Example I-13, 5-(4-(1H-indol-3-yl)thiophen-2-yl)-5-oxopentanoic Acid], the fold induction at 30 µM in experiment [2] was determined as 12.6.

`O=C(O)CCCC(=O)c1cc(-c2c[nH]c3c(F)cccc23)cs1` [Example I-14, 5-(4-(7-fluoro-1H-indol-3-yl)thiophen-2-yl)-5-oxopentanoic Acid]: the fold induction at 50 µM in experiment [1] amounted to 1.96.

As to `COC(=O)CC(=O)c1cc(-c2c[nH]c3ccccc23)cs1` [Example I-16, methyl 3-(4-(1H-indol-3-yl)thiophen-2-yl)-3-oxopropionate], the fold induction at 10 µM in experiment [1] (10 μM) was 14.3.

As to `COC(=O)CC(=O)c1cc(-c2c[nH]c3cc(F)ccc23)cs1` [Example I-17, methyl 3-(4-(6-fluoro-1H-indol-3-yl)thiophen-2-yl)-3-oxopropionate], the fold induction at 10 µM in experiment [1] (10 μM) came to 11.

Consider `COC(=O)CC(=O)c1cc(-c2c[nH]c3c(F)cccc23)cs1` [Example I-18, methyl 3-(4-(7-fluoro-1H-indol-3-yl)thiophen-2-yl)-3-oxopropanoate], for which, in experiment [1] (10 μM), the fold induction at 10 µM amounted to 9.8.

For the molecule `COC(=O)CC(=O)c1cc(-c2c[nH]c3ccc(F)cc23)cs1` [Example I-19, methyl 3-(4-(5-fluoro-1H-indol-3-yl)thiophen-2-yl)-3-oxopropionate], the fold induction at 10 µM in experiment [1] (10 μM) was 10.

Take `COC(=O)CC(=O)c1cc(-c2coc3ccccc23)cs1` [Example I-26, methyl 3-(4-(benzofuran-3-yl)thiophen-2-yl)-3-oxopropanoate]: the fold induction at 20 µM in experiment [2] (20 μM) is 14.6.

In the case of `COC(=O)CC(=O)c1cc(-c2coc3ccccc23)co1` [Example I-31, methyl 3-(4-(benzofuran-3-yl)furan-2-yl)-3-oxopropanoate], the fold induction at 30 µM in experiment [2] was 43.2.

Regarding `COC(=O)CC(=O)c1cc(-c2ccc(OC)c(OC)c2)co1` [Example I-34, methyl 3-(4-(3,4-dimethoxyphenyl)furan-2-yl)-3-oxopropanoate], the fold induction at 30 µM in experiment [2] was determined as 23.7.

As for `COC(=O)CC(=O)c1cc(-c2ccc3ccoc3c2)co1` [Example I-36, methyl 3-(4-(benzofuran-6-yl)furan-2-yl)-3-oxopropanoate], the fold induction at 30 µM in experiment [2] is 29.7.

Turning to `COC(=O)CC(=O)c1cc(-c2c[nH]c3cc(F)ccc23)co1` [Example I-37, methyl 3-(4-(6-fluoro-1H-indol-3-yl)furan-2-yl)-3-oxopropanoate], in experiment [1] (10 μM), the fold induction at 10 µM was 71.5.

`COC(=O)CC(=O)c1cc(-c2c[nH]c3c(F)cccc23)co1` [Example I-38, methyl 3-(4-(7-fluoro-1H-indol-3-yl)furan-2-yl)-3-oxopropanoate]: in experiment [1] (10 μM), the fold induction at 10 µM was determined as 77.2.

As for `COC(=O)CC(=O)c1cc(-c2c[nH]c3cccc(F)c23)co1` [Example I-39, methyl 3-(4-(4-fluoro-1H-indol-3-yl)furan-2-yl)-3-oxopropanoate], in experiment [1] (10 μM), the fold induction at 10 µM stood at 59.5.

For `COC(=O)CC(=O)c1cc(-c2c[nH]c3ccc(F)cc23)co1` [Example I-40, methyl 3-(4-(5-fluoro-1H-indol-3-yl)furan-2-yl)-3-oxopropanoate], the fold induction at 10 µM in experiment [1] (10 μM) is 53.7.

For the molecule `COC(=O)CC(=O)c1cc(-c2c[nH]c3ccc(OC)cc23)cs1` [Example I-42, methyl 3-(4-(5-methoxy-1H-indol-3-yl)thiophen-2-yl)-3-oxopropanoate], in experiment [1] (10 μM), the fold induction at 10 µM is 61.8.

For `COC(=O)CC(=O)c1cc(-c2c[nH]c3ccc(OC)cc23)co1` [Example I-43, methyl 3-(4-(5-methoxy-1H-indol-3-yl)furan-2-yl)-3-oxopropanoate], the fold induction at 10 µM in experiment [1] (10 μM) amounted to 23.3.

As to `O=C(O)CCC(=O)c1cc(-c2csc3ccccc23)cs1` [I′-4, 4-(4-(benzo[b]thiophen-3-yl)thiophen-2-yl)-4-oxobutyric Acid], in experiment [1], the fold induction at 50 µM is 18.4.

In the case of `O=C(O)CCC(=O)c1cc(-c2cccc3sccc23)cs1` [I′-10, 4-(4-(benzo[b]thiophen-4-yl)thiophen-2-yl)-4-oxobutyric Acid], the fold induction at 50 µM in experiment [1] was 15.1.

Regarding `O=C(O)CCC(=O)c1cc(-c2coc3ccccc23)cs1` [I′-14, 4-(4-(benzofuran-3-yl)thiophen-2-yl)-4-oxobutyric Acid], in experiment [2], the fold induction at 25 µM came to 20.7. Also, the fold induction at 100 µM in experiment [3] stood at 18.1.

Regarding `O=C(O)CCC(=O)c1cc(-c2coc3ccccc23)co1` [I′-17, 4-(4-(benzofuran-3-yl)furan-2-yl)-4-oxobutyric acid], the fold induction at 25 µM in experiment [2] was 21.6. Moreover, the fold induction at 50 µM in experiment [3] was found to be 12.5.

As for `O=C(O)CCC(=O)c1cc(-c2c[nH]c3ccccc23)co1` [I′-30, 4-(4-(1H-indol-3-yl)furan-2-yl)-4-oxobutyric Acid], in experiment [2] (12.5 μM), the fold induction at 12.5 µM worked out at 22.7. The fold induction at 100 µM in experiment [3] was determined as 8.13.

On to `CC(CC(=O)c1cc(-c2coc3ccccc23)co1)C(=O)O` (centres unmarked) [I′-37, 4-(4-(benzofuran-3-yl)furan-2-yl)-2-methyl-4-oxobutyric Acid], for which, in experiment [3], the fold induction at 50 µM was 3.79.

For the molecule `O=C(O)CCC(=O)c1cc(-c2c[nH]c3cc(F)ccc23)co1` [I′-38, 4-(4-(6-fluoro-1H-indol-3-yl)furan-2-yl)-4-oxobutyric Acid], the fold induction at 10 µM in experiment [1] (10 μM) was 7.15. Also, the fold induction at 50 µM in experiment [3] stood at 7.1.

Regarding `O=C(O)CCC(=O)c1cc(-c2coc3cc(F)ccc23)co1` [I′-42, 4-(4-(6-fluorobenzofuran-3-yl)furan-2-yl)-4-oxobutyric Acid], in experiment [2], the fold induction at 30 µM amounted to 16.8. In addition, in experiment [3], the fold induction at 100 µM was found to be 7.45.

`O=C(O)CCC(=O)c1cc(-c2c[nH]c3cc(F)ccc23)cs1` [I′-46, 4-(4-(6-fluoro-1H-indol-3-yl)thiophen-2-yl)-4-oxobutyric Acid]: the fold induction at 10 µM in experiment [1] (10 μM) stood at 11.3. The fold induction at 100 µM in experiment [3] came out at 31.4.

For the molecule `O=C(O)CCC(=O)c1cc(-c2c[nH]c3c(F)cccc23)cs1` [I′-49, 4-(4-(7-fluoro-1H-indol-3-yl)thiophen-2-yl)-4-oxobutyric Acid], in experiment [1] (10 μM), the fold induction at 10 µM is 10.3. Moreover, the fold induction at 50 µM in experiment [3] amounted to 36.2.

Consider `COC(=O)CCC(=O)c1cc(-c2c[nH]c3c(F)cccc23)cs1` [I′-50, Methyl 4-(4-(7-fluoro-1H-indol-3-yl)thiophen-2-yl)-4-oxobutyrate], for which, in experiment [1] (10 μM), the fold induction at 10 µM is 68.1.

As to `O=C(O)CCC(=O)c1cc(-c2c[nH]c3cccc(F)c23)cs1` [I′-51, 4-(4-(4-fluoro-1H-indol-3-yl)thiophen-2-yl)-4-oxobutyric Acid], in experiment [1] (10 μM), the fold induction at 10 µM came out at 5.27. In experiment [3], the fold induction at 100 µM came out at 9.75.

With `O=C(O)CCC(=O)c1cc(-c2coc3ccc(F)cc23)cs1` [I′-54, 4-(4-(5-fluorobenzofuran-3-yl)thiophen-2-yl)-4-oxobutyric Acid], the fold induction at 100 µM in experiment [3] stood at 4.5.

With `O=C(O)CCC(=O)c1cc(-c2c[nH]c3c(F)cccc23)co1` [I′-58, 4-(4-(7-fluoro-1H-indol-3-yl)furan-2-yl)-4-oxobutyric Acid], the fold induction at 10 µM in experiment [1] (10 μM) was 4.14. Also, in experiment [3], the fold induction at 100 µM came out at 14.2.
